Source: ChEMBL document CHEMBL1140748, “Synthesis and biological evaluation of novel 2,4-diaminoquinazoline derivatives as SMN2 promoter activators for the potential treatment of spinal muscular atrophy” (J Med Chem, 2008)

Experiments:
[1] = Activation of SMN2 promoter in mouse NSC34 cells assessed as induction of beta-lactamase activity; format: functional, cell-based
[2] = Activation of SMN2 promoter in mouse NSC34 cells assessed as induction of beta-lactamase activity relative to nonactivated cells; format: functional
Throughout, for activity: test concentration or dose not given here.

| SMILES | EC50 ([1]; Mus musculus, NSC-34) [nM] | Activity [2] | EC50 ([1]; nsc34) [nM] |
| --- | --- | --- | --- |
| CC(Oc1cccc2nc(N)nc(N)c12)c1ccc2c(c1)OCO2 (racemic) | 1130 |  |  |
| Nc1nc(N)c2c(OCC3CCN(C(=O)c4cccc5ccccc45)CC3)cccc2n1 | 35 | 2.5 |  |
| Cc1ccc(COc2cccc3nc(N)nc(N)c23)cc1 | 220 | 2.04 |  |
| C[C@@H](Oc1cccc2nc(N)nc(N)c12)c1ccccc1 | 220 |  |  |
| Nc1nc(N)c2c(OCC3CCN(C(=O)c4ccc5ccccc5c4)CC3)cccc2n1 | 151 | 2.4 |  |
| Nc1nc(N)c2c(OCC3CCN(Cc4ccc(Cl)cc4)CC3)cccc2n1 | 47 | 1.8 |  |
| CC(Oc1cccc2nc(N)nc(N)c12)c1cccc(F)c1 (racemic; form 1) |  |  | 55 |
| Cc1cccc(COc2cccc3nc(N)nc(N)c23)c1 | 120 | 1.7 |  |
| Nc1nc(N)c2c(COc3ccc(Cl)cc3)cccc2n1 | 190 | 2 |  |
| Nc1nc(N)c2c(OCC3CCN(Cc4cccc5ccccc45)CC3)cccc2n1 | 43 | 2 |  |
| Nc1nc(N)c2c(Oc3ccccc3Cl)cccc2n1 | 510 | 1.76 |  |
| Nc1nc(N)c2c(OCC3CCN(C(=O)c4ccc(Cl)cc4)CC3)cccc2n1 | 81 | 2.4 |  |
| Nc1nc(N)c2c(OCc3ccc(F)c(F)c3)cccc2n1 | 14 | 1.8 |  |
| CC(C)(C)COc1cccc2nc(N)nc(N)c12 | 650 | 2.1 |  |
| Nc1nc(N)c2c(OCc3ccco3)cccc2n1 | 300 | 1.7 |  |
| Cc1cccc(CN2CCC(COc3cccc4nc(N)nc(N)c34)CC2)c1 | 22 | 1.9 |  |
| Nc1nc(N)c2c(OCC3CCN(Cc4ccccc4Cl)CC3)cccc2n1 | 38 | 2 |  |
| Nc1nc(N)c2c(OCC3CCN(S(=O)(=O)c4cccc(Cl)c4)CC3)cccc2n1 | 172 | 1.9 |  |
| Cc1ccc(CN2CCC(COc3cccc4nc(N)nc(N)c34)CC2)cc1.Cl | 24 | 1.9 |  |
| Cc1ccccc1S(=O)(=O)N1CCC(COc2cccc3nc(N)nc(N)c23)CC1 | 545 | 2 |  |
| COc1ccc(OCc2cccc3nc(N)nc(N)c23)cc1 | 1400 | 2.1 |  |
| Nc1nc(N)c2c(OCC3CCN(S(=O)(=O)c4cccc5ccccc45)CC3)cccc2n1 | 350 | 1.9 |  |
| CCOc1cccc2nc(N)nc(N)c12 | 170 | 2.1 |  |
| Nc1nc(N)c2c(OCc3ccccc3C(F)(F)F)cccc2n1 | 16 | 1.6 |  |

| SMILES | EC50 ([1]; Mus musculus, NSC-34) [nM] | Activity [2] | EC50 ([1]; nsc34) [nM] |
| --- | --- | --- | --- |
| CC(Oc1cccc2nc(N)nc(N)c12)c1cc(F)cc(F)c1 (racemic) | 35 |  |  |
| Cc1ccccc1CN1CCC(COc2cccc3nc(N)nc(N)c23)CC1 | 18 | 1.9 |  |
| C[C@H](Oc1cccc2nc(N)nc(N)c12)c1ccccc1 | 60 |  |  |
| Nc1nc(N)c2c(Oc3ccc(Cl)cc3)cccc2n1 | 2060 | 1.84 |  |
| CC(Oc1cccc2nc(N)nc(N)c12)c1ccccc1Cl (racemic) | 290 |  |  |
| CC(Oc1cccc2nc(N)nc(N)c12)c1ccc(C(F)(F)F)cc1 (racemic) | 50 |  |  |
| C[C@H](Oc1cccc2nc(N)nc(N)c12)c1cccc2ccccc12 | 2390 |  |  |
| Nc1nc(N)c2c(OCC3CCN(S(=O)(=O)c4ccc(F)cc4F)CC3)cccc2n1 | 82 | 2 |  |
| Nc1nc(N)c2c(OCc3ccc(F)cc3F)cccc2n1 | 120 | 1.8 |  |
| Nc1nc(N)c2c(OC3(c4cccc(Cl)c4)CCCCC3)cccc2n1 | 1710 |  |  |
| Nc1nc(N)c2c(OCc3ccc(F)cc3)cccc2n1 | 53 | 1.8 |  |
| CC(Oc1cccc2nc(N)nc(N)c12)c1ccc(F)cc1 (racemic) | 18 |  |  |
| COc1ccccc1COc1cccc2nc(N)nc(N)c12 | 65 | 1.6 |  |
| Nc1nc(N)c2c(COc3ccccc3Cl)cccc2n1 | 1160 | 2.2 |  |
| Cc1ccc(Oc2cccc3nc(N)nc(N)c23)cc1 | 1210 | 1.6 |  |
| Nc1nc(N)c2c(OCC3CCCCO3)cccc2n1 (stereo not drawn) | 480 | 2.1 |  |
| Cc1ccc(C(=O)N2CCC(COc3cccc4nc(N)nc(N)c34)CC2)cc1 | 133 | 2.6 |  |
| Nc1nc(N)c2c(Oc3ccc4cnccc4c3)cccc2n1 | 1260 | 2.3 |  |
| Nc1nc(N)c2c(OCc3ccccn3)cccc2n1 | 250 | 1.9 |  |
| Nc1nc(N)c2c(OCc3ccccc3Cl)cccc2n1 | 140 | 2 |  |
| Nc1nc(N)c2c(OCC3CCN(S(=O)(=O)c4ccc(Cl)cc4)CC3)cccc2n1 | 603 | 2 |  |
| Nc1nc(N)c2c(OCc3ccc(C(F)(F)F)cc3)cccc2n1 | 17 | 1.6 |  |
| CC(C)(C)C(Oc1cccc2nc(N)nc(N)c12)c1ccc(Cl)cc1 (racemic) | 7760 |  |  |
